Experimental data: patent publication US7973051B2 (Hoffman-La Roche Inc., priority 2007, dated 2011)

Biological target: T1, human liver FBPase (Homo sapiens, UniProt P09467)
T1 construct: made in house; host or cells: E. coli
T1 sequence (P09467 2-338 limits assumed): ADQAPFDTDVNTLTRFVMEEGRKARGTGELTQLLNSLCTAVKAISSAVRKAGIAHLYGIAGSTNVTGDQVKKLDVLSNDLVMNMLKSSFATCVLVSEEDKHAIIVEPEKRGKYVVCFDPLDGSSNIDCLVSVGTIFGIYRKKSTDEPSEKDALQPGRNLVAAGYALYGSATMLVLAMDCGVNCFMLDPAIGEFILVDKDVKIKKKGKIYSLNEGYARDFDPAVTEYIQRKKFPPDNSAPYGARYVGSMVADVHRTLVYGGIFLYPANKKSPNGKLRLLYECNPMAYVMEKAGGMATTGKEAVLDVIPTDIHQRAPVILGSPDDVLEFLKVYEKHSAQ
Test: FBPase assay: inorganic phosphate release (malachite green)
Assay type: biochemical
Settings: recombinant human liver FBPase, 50 μM fructose-1,6-bisphosphate, read-out at 620 nm
Protocol: The following tests were carried out for evaluating the inhibitory activity of the compounds of the present invention against human liver FBPase (Swissprot Data base reference P09467, entry F16P_HUMAN).
Human liver FBPase cDNA (NM_000507) was purchased from Origene Technologies, Inc, subcloned in a vector for expression in E. Coli., and sequenced. Recombinant human liver FBPase (hlFBPase) was purified according to the following protocol that uses heat denaturation similarly to that described by El-Maghrabi et. al. [El-Maghrabi, M. R. et al. “Isolation of a human liver fructose-1,6-bisphosphatase cDNA and expression of the protein in Escherichia coli.” J Biol Chem 268:9466-9472, 1993.]. Briefly, E. coli cells, transiently expressing very high levels of soluble and active human liver FBPase, were suspended in 20 mM Tris-HCl pH 7.5, 1 mM EDTA, 1 mM DTT and were lysed by French press. The soluble extract was heat denatured at 65° C. for 5 min, and insoluble, denatured proteins were removed by centrifugation. The extract was then applied to a BioRad Macro-Prep High Q column equilibrated with 20 mM Tris-HCl pH 7.5, 1 mM EDTA, 1 mM DTT and the flow-through (containing FBPase activity) was collected and applied to a BioRad Macro-Prep HS column equilibrated with 20 mM HEPES pH 7.2, 1 mM DTT. A gradient of increasing NaCl concentration was then applied to the HS column and fractions were collected. Fractions containing active FBPase were pooled and further purified by size exclusion chromatography on a Sephacryl S200 column equilibrated in 20 mM Tris-HCl pH 7.5, 150 mM NaCl, 1 mM EDTA, 1 mM DTT. Purity of the enzyme preparation was >90% as assessed by Mass spectrometry.
Recombinant human liver FBPase (hlFBPase) activity was assayed through measuring the inorganic phosphate release that results from the hydrolysis of Fructose-1,6-bisphosphate by the enzyme. As described by Baykov A. A. et al. in [Baykov A. A et al., “Malachite Green procedure for orthophosphate determination and its use in alkaline phosphatase-based enzyme immunoassays”. Anal. Biochem., 171:266-270, 1988], inorganic phosphate can be readily quantified by spectrophotometry at 620 nm after complexation with ammonium molybdate/malachite green reagent. Enzymatic reaction was carried out with modifications of the procedure described by Wright S. W. et al. [Wright S. W. et al., “Anilinoquinazoline inhibitors of Fructose-1,6-bisphosphatase bind to a novel allosteric site: synthesis, in vitro characterization, and X-ray crystallography”. J. Med. Chem. 45:3865-3877, 2002]. Specifically, the reaction was carried out in 96 well plates in a final volume of 100 μl in the presence or in the absence of allosteric inhibitors. Reaction was started adding 25 ng of hlFBPase to the reaction mixture containing 50 mM HEPES-KOH buffer pH 7.2, 2 mM MgCl2, 2 mM EDTA, 1 mM DTT, 50 μM fructose-1,6-bisphosphate and 1% DMSO. After 50 minutes incubation at room temperature, the phosphate released was allowed to form a colored complex for 10 min by adding 150 μl of ammonium molybdate/malachite green reagent containing 0.03% malachite green, 0.2% ammonium molybdate, 0.05% Triton X-100 and 0.7 M H2SO4 in water that was stirred for 30 min at room temperature and filtered through 0.2 μm filter. Under these conditions, the assay was linear with time and able to detect FBPase inhibition after spectrophotometric read-out at 620 nm.

Point of comparison: `CSc1sc(NC(=O)NS(=O)(=O)c2cc(C)c(CCO)s2)nc1C` [Example 86, 5-(2-Hydroxyethyl)-4-methyl-N-{[4-methyl-5-(methylthio)-1,3-thiazol-2-yl]carbamoyl}thiophene-2-sulfonamide], IC50 71 nM. Against it:
- Cc1c(S(=O)(=O)NC(=O)Nc2ncc(Br)s2)sc2ccc(F)cc12 [Example 3, N-[(5-Bromo-1,3-thiazol-2-yl)carbamoyl]-5-fluoro-3-methyl-1-benzothiophene-2-sulfonamide] — 38-fold higher, 2730 nM
- Cn1cc(S(=O)(=O)NC(=O)Nc2ncc(Br)s2)c2ccc(C#N)cc21 [Example 29, N-[(5-Bromo-1,3-thiazol-2-yl)carbamoyl]-6-cyano-1-methyl-1H-indole-3-sulfonamide] — 10-fold higher, 740 nM
- COCc1oc(S(=O)(=O)NC(=O)Nc2nc(C)c(Br)s2)cc1C [Example 35, N-[(5-Bromo-4-methyl-1,3-thiazol-2-yl)carbamoyl]-5-(methoxymethyl)-4-methylfuran-2-sulfonamide] — 3.6-fold higher, 258 nM
- COCCc1sc(S(=O)(=O)NC(=O)Nc2nc(-c3ccccc3)c(C)s2)cc1C [Example 66, 5-(2-Methoxyethyl)-4-methyl-N-[(5-methyl-4-phenyl-1,3-thiazol-2-)carbamoyl]thiophene-2-sulfonamide] — 2.3-fold higher, 160 nM
- COC(=O)c1ccc2scc(S(=O)(=O)NC(=O)Nc3ncc(Br)s3)c2c1 [Example 10, Methyl-3-({[(5-bromo-1,3-thiazol-2-yl)carbamoyl]amino}sulfonyl)-1-benzothiophene-5-carboxylate] — 6.3-fold higher, 446 nM
- COc1sc(NC(=O)NS(=O)(=O)c2csc(C)c2)nc1C [Example 95, N-[(5-Methoxy-4-methyl-1,3-thiazol-2-yl)carbamoyl]-5-methylthiophene-3-sulfonamide] — 8.4-fold higher, 594 nM
- COC(=O)c1cccc2c(S(=O)(=O)NC(=O)Nc3ncc(Br)s3)cn(C)c12 [Example 32, Methyl 3-({[(5-bromo-1,3-thiazol-2-yl)carbamoyl]amino}sulfonyl)-1-methyl-1H-indole-7-carboxylate] — 9.2-fold higher, 653 nM
- CCc1nc(NC(=O)NS(=O)(=O)c2cc(C)c(CCOC)s2)sc1SC [Example 82, N-{[4-Ethyl-5-(methylthio)-1,3-thiazol-2-yl]carbamoyl}-5-(2-methoxyethyl)-4-methylthiophene-2-sulfonamide] — 2-fold higher, 144 nM
- Cn1cc(S(=O)(=O)NC(=O)Nc2ncc(Br)s2)c2ccccc21 [Example 23, N-[(5-Bromo-1,3-thiazol-2-yl)carbamoyl]-1-methyl-1H-indole-3-sulfonamide] — 5.4-fold higher, 385 nM
- COc1ccc(Cl)c2sc(NC(=O)NS(=O)(=O)c3cc(C)c(CCO)s3)nc12 [Example 92, N-[(7-Chloro-4-methoxy-1,3-benzothiazol-2-yl)carbamoyl]-5-(2-hydroxyethyl)-4-methylthiophene-2-sulfonamide] — 1.9-fold lower, 38 nM
- COCc1nc(NC(=O)NS(=O)(=O)c2cc(C)c(CCO)s2)sc1SC [Example 88, 5-(2-Hydroxyethyl)-N-{[4-(methoxymethyl)-5-(methylthio)-1,3-thiazol-2-yl]carbamoyl}-4-methylthiophene-2-sulfonamide] — 5.2-fold higher, 369 nM
- CCOC(=O)COc1cccc2c(S(=O)(=O)NC(=O)Nc3ncc(Br)s3)cn(C)c12 [Example 50, Ethyl {[3-({[(5-bromo-1,3-thiazol-2-yl)carbamoyl]amino}sulfonyl)-1-methyl-1H-indol-7-yl]oxy}acetate] — 3-fold higher, 212 nM
- CCc1nc(NC(=O)NS(=O)(=O)c2csc(C)c2)sc1CC [Example 62, N-[(4,5-Diethyl-1,3-thiazol-2-yl)carbamoyl]-5-methylthiophene-3-sulfonamide] — 3-fold higher, 214 nM
- COc1ccc2scc(S(=O)(=O)NC(=O)Nc3ncc(Br)s3)c2c1 [Example 7, N-[(5-Bromo-1,3-thiazol-2-yl)carbamoyl]-5-methoxy-1-benzothiophene-3-sulfonamide] — 1.7-fold higher, 122 nM
- O=C(Nc1ncc(Br)s1)NS(=O)(=O)c1cc2c(s1)CCOC2 [Example 6, N-[(5-Bromo-1,3-thiazol-2-yl)carbamoyl]-6,7-dihydro-4H-thieno[3,2-c]pyran-2-sulfonamide] — 7.4-fold higher, 528 nM
- COc1cccc2c(S(=O)(=O)NC(=O)Nc3ncc(Br)s3)cn(C)c12 [Example 33, N-[(5-Bromo-1,3-thiazol-2-yl)carbamoyl]-7-methoxy-1-methyl-1H-indole-3-sulfonamide] — the same, 71 nM
- CCc1sc(NC(=O)NS(=O)(=O)c2csc(C)c2)nc1-c1ccccc1 [Example 71, N-[(5-Ethyl-4-phenyl-1,3-thiazol-2-yl)carbamoyl]-5-methylthiophene-3-sulfonamide] — 2.2-fold higher, 159 nM
- COCCc1sc(S(=O)(=O)NC(=O)Nc2nc3ccc(OC)nc3s2)cc1C [Example 90, 5-(2-Methoxyethyl)-N-[(5-methoxy[1,3]thiazolo[5,4-b]pyridin-2-yl)carbamoyl]-4-methylthiophene-2-sulfonamide] — 12-fold higher, 842 nM
- Cc1noc(C)c1-c1ccc2sc(S(=O)(=O)NC(=O)Nc3ncc(Br)s3)cc2c1 [Example 16, N-[(5-bromo-1,3-thiazol-2-yl)carbamoyl]-5-(3,5-dimethylisoxazol-4-yl)-1-benzothiophene-2-sulfonamide] — 12-fold higher, 830 nM
- COc1cnc(NC(=O)NS(=O)(=O)c2cn(C)c3c(OC)cccc23)s1 [Example 44, 7-Methoxy-N-[(5-methoxy-1,3-thiazol-2-yl)carbamoyl]-1-methyl-1H-indole-3-sulfonamide] — 19-fold higher, 1320 nM
- COc1ccc2nc(NC(=O)NS(=O)(=O)c3cc(C)c(CCOC(C)=O)s3)sc2n1 [Example 55, 2-[5-({[(5-methoxy[1,3]thiazolo[5,4-b]pyridin-2-yl)carbamoyl]amino}sulfonyl)-3-methyl-2-thienyl]ethyl acetate] — 8.7-fold higher, 616 nM
- CC(=O)OCCOc1cccc2c(S(=O)(=O)NC(=O)Nc3ncc(Br)s3)cn(C)c12 [Example 48, 2-{[3-({[(5-Bromo-1,3-thiazol-2-yl)carbamoyl]amino}sulfonyl)-1-methyl-1H-indol-7-yl]oxy}ethyl acetate] — 6-fold higher, 429 nM
- CCc1nc(NC(=O)NS(=O)(=O)c2cc(C)c(CCO)s2)sc1SC [Example 84, N-{[4-Ethyl-5-(methylthio)-1,3-thiazol-2-yl]carbamoyl}-5-(2-hydroxyethyl)-4-methylthiophene-2-sulfonamide] — within 1.5-fold, 78 nM
- Cc1noc(C)c1-c1cccc2cc(S(=O)(=O)NC(=O)Nc3ncc(Br)s3)sc12 [Example 21, N-[(5-Bromo-1,3-thiazol-2-yl)carbamoyl]-7-(3,5-dimethylisoxazol-4-yl)-1-benzothiophene-2-sulfonamide] — 6.3-fold higher, 447 nM
- COc1cnc(NC(=O)NS(=O)(=O)c2cn(C)c3c(OCCO)cccc23)s1 [Example 47, 7-(2-Hydroxyethoxy)-N-[(5-methoxy-1,3-thiazol-2-yl)carbamoyl]-1-methyl-1H-indole-3-sulfonamide] — 10-fold higher, 734 nM
- CCc1nc(NC(=O)NS(=O)(=O)c2cc(C)c(CCOC(C)=O)s2)sc1SC [Example 83, 2-{5-[({[4-Ethyl-5-(methylthio)-1,3-thiazol-2-yl]carbamoyl}amino)sulfonyl]-3-methyl-2-thienyl}ethyl acetate] — 1.9-fold higher, 134 nM
- Cn1cc(S(=O)(=O)NC(=O)Nc2ncc(Br)s2)c2ccc(S(C)(=O)=O)cc21 [Example 30, N-[(5-Bromo-1,3-thiazol-2-yl)carbamoyl]-1-methyl-6-(methylsulfonyl)-1H-indole-3-sulfonamide] — 7.4-fold higher, 523 nM
